We go through 24 compounds from US20040138301A1, “Chemical uncouplers for the treatment of obesity” (priority 2002, published 2004).

This series relates to HEP-G2 cells. Description: cells. To be noted: for EC50 / Emax / EC (Emax): Homo sapiens; for EC50: HepG2, 3 h. On the procedure: Assay (I): Glucose utilisation in a human hepatocytes cell line (HEP-G2 cells)
The assay measures indirectly the activity of the respiratory chain in HEP-G2 cells by using D-(3-^3H(N))-glucose. The ^3H-proton will first be released during the metabolism of glucose where it will be incorporated into water. The water is thereafter separated from the D-(3-^3H(N))-glucose by evaporation. Finally, the radioactivity in the water is determined using a Topcounter.
HEP-G2 cells obtained from ATCC (Maryland, USA), are cultured in assay medium (MEM medium) with the following addition 1× non-essential amino acids (M7145, 2 mM glutamine, 100 units/ml penicillin and streptomycin, 0.0075% sodium bicarbonate, 1 mM sodium pyrovate and 0.5% BSA (Bovin Serum Albumin, Sigma Missouri, USA)) at 37° C. and 5% CO2. All media are obtained by Gibco (Life Technologies, Maryland, USA) where not otherwise mentioned.
At day zero the cells are harvested using trypsin-EDTA and washed in assay medium using centrifugation. […] The cells are then incubated at 37° C. and 5% CO2 overnight.
The next day the compounds to be tested are diluted in DMSO (Sigma, Missouri, USA) to 100 times final concentration. They are then diluted to a final concentration in assay medium containing 10 μCi/ml D-(3-^3H(N))-glucose (PerkinElmer Life Sciences Inc., Boston, USA). The medium is removed from the cells and 200 μl of the compound dilutions are added in duplicates. The cells are then incubated for another 3 hours at 37° C. and 5% CO2. Finally the cells are lysed by adding 50 μl 10% TCA (trichloroacetic acid). 300 μl of sterile water is then added to the 24-wells that surrounds the StripPlate wells. The plate is sealed with Top-seal-tape (Packard, PerkinElmer Life Sciences Inc., Boston, USA) and the plate is incubated in a heating cupboard at 50° C. to equilibrium the radioactive water formed in the respiratory chain into the water in the 24-well plate by evaporate. The plates incubate for 8 hours where the heating cupboard is turned off. The top seal is removed when the samples have reached room temperature. One ml scintillation liquid (Packard Microscient, PerkinElmer Life Sciences Inc., Boston, USA) is added to all the samples and the radioactivity is determined using a Topcounter (Packard, PerkinElmer Life Sciences Inc., Boston, USA). Non-specific activity is determined by evaporating 200 μl of the dilution medium containing the D-(3-^3H(N))-glucose into 300 μl sterile water, and total radioactivity is determined by counting 5 μl assay medium with 10 μCi/ml D-(3-^3H(N))-glucose.
The cpm (counts per minute) representing the non-specific radioactivity in the D-(3-^3H(N))-glucose is subtracted from all incubated values. Then mean basal value (samples without any compound added) is subtracted from the values of all stimulated samples (samples added different concentrations of the different test compounds). All these calculations are done using GraphPad Prism 3.0 (GraphPad software, Inc.). The maximal stimulation caused by the test compounds is calculated in percentage of maximal stimulation caused by either DNP or FCCP.
When calculating the concentration-response curve the maximal glucose utilisation stimulated by FCCP or DNP (subtracted non-specific and basal values) is converted to 100% and all the other values are expressed in percentage of this value. Using these percentage values and the compound concentration a concentration-response curve is calculated using sigmoidal dose-response (variable slope) equation (all the calculations are done by GraphPad Prism 3.0 (GraphPad software, Inc.));
Y=Bottom+(Top−Bottom)/(1+10^((LogEC50-X)*slope))
X is the logarithm of the molar concentration of the test compound.
Y is the degree of stimulation caused by the compound measured as a percentage of the maximal stimulation achieved by use of FCCP or DNP.
The results achieved with these concentrations are used to determine the slope in this area using the following equation: […]

The mark [1] stands for this setting: read-out: HEP-G2 EC50, HEP-G2 cells, glucose utilisation, 3 hours incubation.
The mark [2] stands for this setting: HepG2, read-out: HEP-G2 Emax (% of FCCP), HEP-G2 cells, maximal stimulation relative to FCCP.
Setting [3] is: HepG2, read-out: HEP-G2 Emax (μM), HEP-G2 cells, concentration at which Emax is achieved (CEmax).
[4] abbreviates: HepG2, read-out: HEP-G2 Emax (% of FCCP).
[5] abbreviates: HepG2, read-out: HEP-G2 Emax (μM).

Read-outs that look alike come from different tables or passages of the source. Where only a bound is given, the exact number is not on record here.

The EC50 is the midpoint of the concentration-response curve. Broadly, the Emax is the maximal effect, on the per cent scale that the assay sets. As for `CC(=O)c1ccc(O)c([N+](=O)[O-])c1` [Example 3, 4-Hydroxy-3-Nitroacetophenone], under setting [1], the EC50 turned out to be 270 µM. Moreover, the Emax under setting [2] worked out at 75%. Also, the EC (Emax) under setting [3] was 1000 µM.
For the compound `Cc1c(Br)cc(C(C)C)c(O)c1C(=O)Nc1ccc([N+](=O)[O-])cc1C(F)(F)F` [Example 57, 3-Bromo-6-Hydroxy-5-Isopropyl-2-Methyl-N-(4-Nitro-2-Trifluoromethyl-Phenyl)-Benzamide], the EC50 under setting [1] came to 0.31 µM. The Emax under setting [2] was 90%. The EC (Emax) under setting [3] is 10 µM.
As to `Cc1ccc(C(C)C)c(C(=O)Nc2ccc([N+](=O)[O-])cc2Cl)c1O` [Example 46, N-(2-Chloro-4-Nitro-Phenyl)-2-Hydroxy-6-Isopropyl-3-Methyl-Benzamide], under setting [1], the EC50 was 3 µM. Besides, under setting [2], the Emax came to 103%. The EC (Emax) under setting [3] is 10 µM.
For `N#CC(C#N)=Cc1c[nH]c2ccc(Br)cc12` [Example 29, 2-(5-Bromo-1H-Indol-3-Ylmethylene)-Malononitrile], the EC50 under setting [1] is 13 µM. Under setting [2], the Emax is 65%. Besides, the EC (Emax) under setting [3] was determined as 30 µM.
Regarding `O=C(Nc1ccc([N+](=O)[O-])c(C(F)(F)F)c1)c1cc(F)cc(C(F)(F)F)c1` [Example 65, 3-Fluoro-N-(4-Nitro-3-Trifluoromethyl-Phenyl)-5-Trifluoromethyl-Benzamide], the EC50 under setting [1] stood at 5.3 µM. For the same compound, the Emax under setting [2] worked out at 100%. The EC (Emax) under setting [3] amounted to 10 µM.
For the compound `Cc1cc(C(=O)Nc2ccc([N+](=O)[O-])cc2Cl)c(O)c(C(C)(C)C)c1` [Example 45, 3-Tert-Butyl-N-(2-Chloro-4-Nitro-Phenyl)-2-Hydroxy-5-Methyl-Benzamide], under setting [1], the EC50 came to 0.6 µM. Also, the Emax under setting [2] stood at 96%. The EC (Emax) under setting [3] was 3 µM.
In the same order, the values of `COc1ccc(O)c([N+](=O)[O-])c1` [Example 2, 4-Methoxy-2-Nitrophenol] are 290 µM, 35% and 1000 µM.
As to `O=C(Nc1ccc(Br)cc1Cl)c1cc(Br)ccc1O` [Example 9, N-(2-Chloro-4-Bromophenyl)-5-Bromosalicylanilide], under setting [1], the EC50 was determined as 2.3 µM. Further, the maximal effect (Emax) under setting [2] stood at 100%. In addition, the EC (Emax) under setting [3] was determined as 10 µM.
For the compound `CC(C)(C)c1cc(/C=C(\C#N)c2cc(C(F)(F)F)cc(C(F)(F)F)c2)cc(C(C)(C)C)c1O` [Example 79, 2-(3,5-Bis-Trifluoromethyl-Phenyl)-3-(3,5-Di-Tert-Butyl-4-Hydroxy-Phenyl)-Acrylonitrile], under setting [1], the half-maximal effective concentration (EC50) was 1 µM. Also, the Emax under setting [2] was determined as 80%. Under setting [3], the EC (Emax) amounted to 3 µM. Also, under “human, 3 h”, the “HEP-G2 Tox” value was “Tox 0.3 mM”.
Regarding `Cc1ccc2[nH]cc(C=C(C#N)C#N)c2c1` [Example 31, 2-((5-Methyl-1H-Indol-3-Yl)Methylene)Malononitrile], the EC50 under setting [1] is not below 300 µM. Under setting [2], the Emax stood at 0%.
Turning to `Cc1cc(C)c2[nH]cc(C=C(C#N)C#N)c2c1` [Example 28, 2-(5,7-Dimethyl-1H-Indol-3-Ylmethylene)-Malononitrile], the EC50 under setting [1] was determined as 35.5 µM. The Emax under setting [2] worked out at 35%. In addition, the EC (Emax) under setting [3] worked out at 300 µM.
As to `O=C(Nc1cc(C(F)(F)F)cc(C(F)(F)F)c1)c1cc(F)cc(C(F)(F)F)c1` [Example 64, N-(3,5-Bis-Trifluoromethyl-Phenyl)-3-Fluoro-5-Trifluoromethyl-Benzamide], under setting [1], the 50% effective concentration (EC50) came to 2.6 µM. Also, under setting [2], the Emax worked out at 105%. Under setting [3], the EC (Emax) came out at 10 µM.
`N#Cc1cc(NC(=O)c2cccc(C(F)(F)F)c2)ccc1Sc1ccccc1` [Example 24, N-(3-Cyano-4-Phenylsulfanyl-Phenyl)-3-Trifluoromethyl-Benzamide]: the EC50 under setting [1] came to 42 µM. Besides, the Emax under setting [2] turned out to be 65%. Further, under setting [3], the EC (Emax) was 100 µM.
Take `O=C(Nc1cc(C(F)(F)F)cc(C(F)(F)F)c1)c1ccc(C(F)(F)F)c(F)c1` [Example 66, N-(3,5-Bis-Trifluoromethyl-Phenyl)-3-Fluoro-4-Trifluoromethyl-Benzamide]: the EC50 under setting [1] was determined as 4.3 µM. For the same compound, the Emax under setting [2] turned out to be 95%. Further, the EC (Emax) under setting [3] was determined as 10 µM.
Take `Cc1c(Br)cc(C(C)C)c(O)c1C(=O)Nc1ccc([N+](=O)[O-])cc1Cl` [Example 41, 3-Bromo-N-(2-Chloro-4-Nitro-Phenyl)-6-Hydroxy-5-Isopropyl-2-Methyl-Benzamide]: under setting [1], the EC50 was determined as 4 µM. Further, under setting [2], the Emax is 103%. In addition, under setting [3], the EC (Emax) turned out to be 30 µM.
Turning to `Cc1ccc(C(C)C)c(O)c1C(=O)Nc1ccc([N+](=O)[O-])cc1Cl` [Example 39, N-(2-Chloro-4-Nitro-Phenyl)-2-Hydroxy-3-Isopropyl-6-Methyl-Benzamide], under setting [1], the EC50 stood at 6 µM. The Emax under setting [2] turned out to be 55%. For the same compound, under setting [3], the EC (Emax) amounted to 10 µM.
`CC(C)(C)c1cc(/C=C(\C#N)c2ccncc2)cc(C(C)(C)C)c1O` [Example 78, 3-(3,5-Di-Tert-Butyl-4-Hydroxy-Phenyl)-2-Pyridin-4-Yl-Acrylonitrile]: the EC50 under setting [1] came out at 2.9 µM. The Emax under setting [2] turned out to be 80%. Moreover, under setting [3], the EC (Emax) was found to be 10 µM.
`CCc1cc(C#N)cc2c(C)c(C)[nH]c12` [Example 22, 2,3-Dimethyl-5-Cyano-7-Ethylindole]: the EC50 under setting [1] worked out at 91 µM. Under setting [2], the Emax turned out to be 100%. The EC (Emax) under setting [3] worked out at 1000 µM.
On to `CC(C)c1cccc(C(=O)Nc2ccc([N+](=O)[O-])cc2Cl)c1O` [Example 38, N-(2-Chloro-4-Nitro-Phenyl)-2-Hydroxy-3-Isopropyl-Benzamide], for which the EC50 under setting [1] stood at 3.35 µM. For the same compound, the Emax under setting [2] worked out at 105%. For the same compound, the EC (Emax) under setting [3] came to 30 µM.
In the case of `O=C(Nc1ccc([N+](=O)[O-])cc1Cl)c1ccc2ccccc2c1O` [Example 8, 2′-Chloro-1-Hydroxy-4′-Nitro-2-Naphthanilide], the EC50 (read-out: HEP-G2 EC50) was 12 µM. The Emax under setting [4] stood at 80%. Moreover, the EC (Emax) under setting [5] is 100 µM.
For `O=C(Nc1ccc([N+](=O)[O-])c(C(F)(F)F)c1)c1ccc(F)c(C(F)(F)F)c1` [Example 67, 4-Fluoro-N-(4-Nitro-3-Trifluoromethyl-Phenyl)-3-Trifluoromethyl-Benzamide], the half-maximal effective concentration (EC50) under setting [1] was determined as 5.9 µM. Under setting [2], the Emax was 85%. In addition, the EC (Emax) under setting [3] amounted to 30 µM.
For the compound `CC(C)(C)c1cc(/C=N/C(C#N)=C(\N)C#N)cc(C(C)(C)C)c1O` [Example 17, 2-Amino-S-[(3,5-Di-Tert-Butyl-4-Hydroxybenzylidone)-Amino]-But-2-Enedinitrile], the concentration for a half-maximal effect (EC50) under setting [1] worked out at 6 µM. The Emax under setting [2] stood at 45%. The EC (Emax) under setting [3] was determined as 30 µM. Also, the “HEP-G2 Tox” value (human, 3 h) is on record as “Tox 0.1 mM”.
Regarding `N#Cc1c(-c2ccc(Cl)cc2)[nH]c(C(F)(F)F)c1Br` [Example 23, 4-Bromo-2-(4-Chlorophenyl)-5-Trifluoromethyl-1H-Pyrrole-3-Carbonitrile], the EC50 (read-out: HEP-G2 EC50) is 1.75 µM. In addition, the Emax under setting [4] came to 117%. In addition, under setting [5], the EC (Emax) was found to be 30 µM.
Turning to `N#Cc1ccc(NC(=O)c2cc(C(F)(F)F)cc(C(F)(F)F)c2)cc1C(F)(F)F` [Example 6, N-1-[4-Cyano-3-(Trifluoromethyl)Phenyl]-3,5-Di(Trifluoromethyl)Benzamide], the EC50 (read-out: HEP-G2 EC50) stood at 1.6 µM. Besides, under setting [4], the Emax came to 95%. For the same compound, the EC (Emax) under setting [5] is 10 µM. For the setting “concentration with sign of toxicity (significant drop in glucose utilisation)”, the “HEP-G2 Tox” value is reported as “Tox 0.1 mM”.
